In article PMC4595804, “A strategy to discover decoy chemokine ligands with an anti-inflammatory activity” (Scientific Reports, 2015):

Experiments:
CXCR4 = CXCR4 (Homo sapiens, UniProt P61073); conditions: EGFP-CXCR4+ HEK cells, 1 h preincubation
Method: The identification of neutraligands relies on the measurement of kinetic-based calcium responses.
Monitoring calcium responses in a time-resolved manner allows the discrimination of compounds binding to the chemokine from those binding to the receptor. This is achieved using a pre-incubation protocol in which the tested compounds are preincubated with the receptor or with the chemokine prior to calcium monitoring. […] These incubation protocols are named Time-Resolved Intracellular Calcium recordings (TRIC-r) allowing the identification of neutraligands versus receptor antagonists.

CCL17 [1] = target: T1, CCL17 (Homo sapiens, UniProt Q92583); test: Tryptophan fluorescence assay on CCL17; type: binding; conditions: 0–25 μM compound
T1 construct: codes for the mature CCL17 or CCL22 with an N-terminal thioredoxin-hexahistidin (TRX- (His)6) tag; thioredoxin (TRX) (N, cleaved yes); (His)6 (N, cleaved yes); made in house; host or cells: E. coli BL21 (DE3)
T1 sequence (Q92583 24-94): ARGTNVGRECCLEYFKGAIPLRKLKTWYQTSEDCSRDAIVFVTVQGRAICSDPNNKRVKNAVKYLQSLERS
Method: (§1) Fluorescence measurements were performed on a spectrofluorometer (JobinYvon/Spex) in a quartz microcuvette at 20 °C. CCL17 and CCL22 (1.5 μM in HEPES buffer without BSA) were excited at 285 nm and emission spectra were recorded (300–400 nm). […] The fluorescence emission spectra were corrected by subtracting the emission scan of the compounds alone and data analysis was carried out with fluorescence intensities detected at 340 nm.

CCR4+ HUT78 cells = test: HUT78 chemotaxis: compounds alone or preincubated with the cells (antagonist protocol); type: cell-based, human; conditions: receptor antagonist protocol, 1 μM, 3 nM CCL17 or CCL22
Method: Cell migration was carried out in RPMI1640-BSA (0.1%) using Transwell 96-well plates (Corning Costar, 5 μm pore size, polycarbonate membranes). […] Lower wells contained the same medium diluted with DMSO or chemokine (3 nM CCL17 or CCL22).
0.1% BSA using Transwell 96-well plates (Corning Costar, 5µm pore size, polycarbonate […]
the same medium diluted with DMSO or chemokine (3nM CCL17 or CCL22). In neutraligand inhibition studies, prior to their use, CCL17 (a) and CCL22 (b) were pre-incubated with […]
in the lower compartment. For characterization of the antagonist properties, the compounds were pre-incubated with the cells in the upper compartment. C-021 (1µM, stripped bars), the CCR4 receptor antagonist, was used as a control in both incubation protocols. Results are expressed as the percentage of cells that migrated to the lower chamber. Data represent the means±SD. Experiments were performed in triplicate.
(1 picture or pasted object on this page, not shown here)

CCR4 [2] = target: T2, CCR4 (Homo sapiens, UniProt P51679); test: TRIC-r calcium assay, antagonist protocol: compound preincubated with CCR4-expressing cells; type: cell-based; conditions: primary screen
T2 construct: signal peptide fused to EGFP (N); expressed in transfected cells; host or cells: HEK-293
T2 sequence (P51679 1-360): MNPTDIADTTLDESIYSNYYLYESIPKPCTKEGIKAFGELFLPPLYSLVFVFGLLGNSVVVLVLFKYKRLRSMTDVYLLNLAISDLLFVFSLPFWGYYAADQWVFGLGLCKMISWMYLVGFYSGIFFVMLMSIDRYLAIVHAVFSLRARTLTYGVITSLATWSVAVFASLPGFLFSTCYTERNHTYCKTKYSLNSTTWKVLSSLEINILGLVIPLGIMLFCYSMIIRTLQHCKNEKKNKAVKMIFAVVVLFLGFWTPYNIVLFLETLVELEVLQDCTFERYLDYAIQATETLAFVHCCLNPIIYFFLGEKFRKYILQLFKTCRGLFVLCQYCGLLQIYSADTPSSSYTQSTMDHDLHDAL
Method: (§2) Two plates (96-well plates, Greiner) were prepared for the screen: one containing test compounds alone in order to determine their direct agonistic activity, and another one containing test compounds mixed with CCL17 or CCL22 at room temperature for 1 h (neutraligand protocol). The chemokines and test compounds were prepared at a 3× concentration, while digitonin was prepared at a 4× concentration. The CCR4 antagonist, C-021 served as control in the experiment. In the antagonist protocol, compounds were added to the cell plate (one compound per well) and incubated with cells for 30 min at room temperature, while the agonist (CCL17 or CCL22) was added to the ligand plate only.
Dye loaded cells were placed in the FlexStation 3 (Molecular Devices). Calcium mobilization was measured at 401 and 475 nm emission fluorescence after excitation at 355 nm. For the primary screening, the ligands (50μl of chemokine mixed with DMSO or test compounds) were added to the cells at 40 s, followed by digitonin addition (50μl) at 100 s to the cells. […] Raw fluorescence data (at 401 and 475 nm) were exported and the ratio 401/475 was calculated. The calcium response values (height of peak response over baseline) were determined. […] Hit molecules were confirmed by performing concentration-response curves and their half maximal inhibitory concentration (IC50) values were calculated using the Kaleidagraph software.

CCL17 [3] = target: T1, CCL17; test: TRIC-r calcium assay, neutraligand protocol: compound preincubated with CCL17, EGFP-CCR4+Gqi5+ HEK cells; type: cell-based; conditions: neutraligand protocol, control compound
Method: EGFP-CCR4^+Gqi5^+HEKcells were loaded with fluorescent Ca^2+-indicator Indo-1 AM (5μM, Interchim) for 45 min at 37 °C. […] Cells (100,000 cells/well, 100μl) were seeded in black clear bottom 96-well plates (Greiner), and centrifuged at 250 × g for 5 min.
as §2
Dye loaded cells were placed in the FlexStation 3 (Molecular Devices). […] For the primary screening, the ligands (50μl of chemokine mixed with DMSO or test compounds) were added to the cells at 40 s, followed by digitonin addition (50μl) at 100 s to the cells. Molecules were screened at a final concentration of 2μg/ml with 5 nM CCL17 or CCL22. […] The calcium response values (height of peak response over baseline) were determined. Hits were selected by comparing the response amplitude at the time of the chemokine addition ± test compound. The Z’ factor[29] was calculated according to the following equation: Z’ = 1-(3SD+ + 3SD−)/|Ave+ − Ave−|, where SD+ and Ave+ are respectively the standard deviation and the mean value of the positive controls (chemokine + DMSO), while SD− and Ave− are respectively the standard deviation and the mean value of the negative controls (HEPES-BSA (0.1%) mixed with DMSO, or cells mixed with C-021). Hit molecules were confirmed by performing concentration-response curves and their half maximal inhibitory concentration (IC50) values were calculated using the Kaleidagraph software.

CCL22 = target: T3, CCL22 (Homo sapiens, UniProt O00626); test: Tryptophan fluorescence assay on CCL22; type: binding; conditions: 0–25 μM compound
T3 construct: codes for the mature CCL17 or CCL22 with an N-terminal thioredoxin-hexahistidin (TRX- (His)6) tag; thioredoxin (TRX) (N, cleaved yes); (His)6 (N, cleaved yes); made in house; host or cells: E. coli BL21 (DE3)
T3 sequence (O00626 25-93): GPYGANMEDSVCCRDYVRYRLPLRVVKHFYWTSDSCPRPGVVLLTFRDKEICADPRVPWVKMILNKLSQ
Method: as §1, with “°C.” for “°C. CCL17 and CCL22 (1.5 μM in HEPES buffer without BSA) were excited at 285 nm and emission spectra were recorded (300–400 nm).”

CCR4 [4] = target: T2, CCR4; test: EGFP-CCR4 receptor surface level / endocytosis on EGFP-CCR4+ HEK cells; type: cell-based; conditions: 100 nM chemokine, 30 min, EGFP-CCR4+ HEK cells
Method: CCR4 levels were evaluated by flow cytometry (FACSCalibur, BD biosciences) using cell surface labeling of EGFP with monoclonal mouse anti-GFP (Roche Applied Science; 1:100 dilution) as primary antibody and R-phycoerythrin conjugated AffiniPure F (ab’)2 fragment goat anti-mouse (Immunotech; 1/100) as secondary antibody.

CCR4 [5] = target: T2, CCR4; test: Dose-response of chemokine-induced calcium responses in EGFP-CCR4+Gqi5+ HEK cells; type: cell-based; conditions: recombinant chemokine, + Gqi5, 21 °C
Method: EGFP-CCR4^+Gqi5^+HEKcells were loaded with fluorescent Ca^2+-indicator Indo-1 AM (5μM, Interchim) for 45 min at 37 °C. The cells were detached in PBS-EDTA (5 mM) for 2 min, suspended in growth medium, pelleted by centrifugation at 320 × g for 5 min, and resuspended in HEPES-BSA buffer (137.5 mM NaCl, 6 mM KCl, 1.25 mM CaCl2, 1.25 mM MgCl2, 0.4 mM NaH2PO4, 5.6 mM glucose, 10 mM HEPES, BSA (0.1%, w/v), pH 7.4). Cells (100,000 cells/well, 100μl) were seeded in black clear bottom 96-well plates (Greiner), and centrifuged at 250 × g for 5 min.
Dye loaded cells were placed in the FlexStation 3 (Molecular Devices). Calcium mobilization was measured at 401 and 475 nm emission fluorescence after excitation at 355 nm. […] Raw fluorescence data (at 401 and 475 nm) were exported and the ratio 401/475 was calculated. The calcium response values (height of peak response over baseline) were determined. […] The Z’ factor[29] was calculated according to the following equation: Z’ = 1-(3SD+ + 3SD−)/|Ave+ − Ave−|, where SD+ and Ave+ are respectively the standard deviation and the mean value of the positive controls (chemokine + DMSO), while SD− and Ave− are respectively the standard deviation and the mean value of the negative controls (HEPES-BSA (0.1%) mixed with DMSO, or cells mixed with C-021). […]

CXCR4, sequence (P61073 whole entry): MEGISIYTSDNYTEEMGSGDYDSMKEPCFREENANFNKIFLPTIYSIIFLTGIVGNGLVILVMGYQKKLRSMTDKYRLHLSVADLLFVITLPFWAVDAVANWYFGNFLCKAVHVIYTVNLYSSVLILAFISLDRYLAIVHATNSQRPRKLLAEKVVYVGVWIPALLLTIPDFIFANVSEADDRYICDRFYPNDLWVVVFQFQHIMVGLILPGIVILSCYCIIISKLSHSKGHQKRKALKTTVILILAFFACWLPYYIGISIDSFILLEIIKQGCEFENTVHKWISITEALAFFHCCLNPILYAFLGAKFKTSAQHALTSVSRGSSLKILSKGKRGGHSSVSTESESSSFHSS

## c1cc(CN2CCCNCCNCCCNCC2)ccc1CN1CCCNCCNCCCNCC1 [AMD3100]
CXCR4
  amplitude of CXCL12 calcium responses, preincubation with the chemokine compared with preincubation with the receptor: much greater

## COc1cc2nc(N3CCC(N4CCCCC4)CC3)nc(NC3CCCCCC3)c2cc1OC [C-021, reference compound]
CCL17 [1]
  change in tryptophan fluorescence of CCL17: No significant change
CCR4+ HUT78 cells
  inhibition of CCR4+ HUT78 T cell migration, compound preincubated with the cells: 90%
CCR4 [2]
  effect on the response to CCL17 or CCL22 after preincubation with the receptor-expressing cells: abolished responses
CCL17 [3]
  effect on CCL17 calcium responses after preincubation with the chemokine: not with the chemokine
CCL22
  change in tryptophan fluorescence of CCL22: No significant change

B1: CCL17: recombinant human chemokine (Thymus and Activation-Regulated Chemokine), CCR4 agonist, produced in E. coli (protein)
chain: T1 sequence (Q92583 24-94)
modifications: left off: thioredoxin (TRX), N-terminal, cleaved | His6, N-terminal, cleaved
CCR4 [4]
  CCR4 internalization (receptor endocytosis) induced by the chemokine: approximately 43.0 ± 3.0%
CCR4 [5]
  EC50: 3.7 ± 0.4 nM

B2: CCL22: recombinant human chemokine (Macrophage-Derived Chemokine), CCR4 agonist, produced in E. coli (protein)
chain: T3 sequence (O00626 25-93)
modifications: left off: thioredoxin (TRX), N-terminal, cleaved | His6, N-terminal, cleaved
notes: recombinant human chemokine (Macrophage-Derived Chemokine), CCR4 agonist, produced in E. coli
CCR4 [4]
  CCR4 internalization (receptor endocytosis) induced by the chemokine: 78.0 ± 3.0%
CCR4 [5]
  EC50: 2.9 ± 0.5 nM
